The results in this text go back to ChEMBL document CHEMBL1154198, “Chemical genetics of Plasmodium falciparum” (Nature, 2010).

The test system of assay [1] is Plasmodium falciparum. Description: ST_JUDE: Plasmodium falciparum K1 EC50 (uM) as measured by SYBR green dye. It is filed as functional, organism-based.
For assay [2], the system named is Plasmodium falciparum. Description: ST_JUDE: Plasmodium falciparum 3D7 EC50 (uM) as measured by SYBR green dye. It counts as functional, organism-based.

For `Cc1cc(Nc2ccc(C)c(F)c2)n2ncnc2n1`, the concentration giving a half-maximal response (EC50) in the assay with Plasmodium falciparum [1] and in the assay on Plasmodium falciparum [2] was more than 15 µM each time.
Turning to `O=C(CSc1nc(-c2ccccc2Cl)ns1)Nc1cccc(Cl)c1`, the concentration for a half-maximal effect (EC50) stood at 1.7 µM with Plasmodium falciparum [1] and 1.39 µM in the assay on Plasmodium falciparum [2].
For `C=CCOc1ccc(C(=O)Nc2nonc2-c2ccc(OC)c(OC)c2)cc1`, in that order: 0.689 µM and 0.591 µM.
As for `COc1cc2c(cc1OC)C(C(=O)Nc1ccc(C(F)(F)F)cc1)C(c1cccs1)N(C)C2=O` (centres undefined), the concentration giving a half-maximal response (EC50) worked out at 3.05 µM with Plasmodium falciparum [1] and 2.34 µM in the assay on Plasmodium falciparum [2].
For `CCN1/C(=C/c2cccc[n+]2C)Sc2ccccc21`, in that order: more than 15 µM and 4.47 µM.
For `COc1cccc(C(=O)NC(c2ccc(Cl)cc2)c2cc(Cl)c3cccnc3c2O)c1` (centres undefined), in that order: 1.66 µM and 2.01 µM.
For `CC(C)CCNCC(O)Cn1c2ccc(Br)cc2c2cc(Br)ccc21` (centres undefined), in that order: 0.149 µM and 0.492 µM.
As to `Cc1cc(/C=N/n2cnnc2)c(C)n1-c1ccc(Br)cc1`, the EC50 in the assay on Plasmodium falciparum [1] and in the assay on Plasmodium falciparum [2] was more than 15 µM throughout.
With `CCCCN(CC)CCNC(=O)c1cc2cc3ccc(C)cc3nc2o1`, the 50% effective concentration (EC50) was 4.09 µM with Plasmodium falciparum [1] and more than 15 µM in the assay on Plasmodium falciparum [2].
For `Cc1cc(O)nc2nnc(SCC(=O)Nc3cccc(Cl)c3)n12`, in that order: 7.29 µM and more than 15 µM.
For `COc1ccc(S(=O)(=O)Nc2cc3sc(=O)oc3c3ccccc23)cc1`, in that order: more than 15 µM and more than 15 µM.
With `CCOC(=O)C(NC(C)=O)(Nc1ccc(S(=O)(=O)Nc2cc(C)on2)cc1)C(F)(F)F` (centres undefined), the results for the EC50 with Plasmodium falciparum [1] and with Plasmodium falciparum [2] were 4.56 µM and 2.04 µM, respectively.
For `COC(CNC(=O)c1ccc(-n2c(C)cc3c2CCCC3)cc1)OC`, in that order: more than 15 µM and more than 15 µM.
For `C[N+]1(CCCCCCCCCCCO)CCCCC1`, in that order: more than 15 µM and more than 15 µM.
For `COc1ccc(-c2cc(=O)oc3c(OC)c(OC)ccc23)cc1`, in that order: more than 15 µM and more than 15 µM.
Regarding `Cc1ccc(Nc2cc(C)nc(Nc3ccc(NS(=O)(=O)c4ccc(C)cc4)cc3)n2)cc1`, the EC50 in the assay with Plasmodium falciparum [1] worked out at 7.97 µM; in the assay with Plasmodium falciparum [2] it was 0.621 µM.
For `Cc1ccc(N2C(=O)CS(=O)(=O)C23C(=O)N(Cc2ccccc2Cl)c2ccccc23)cc1C` (centres undefined), in that order: 2.43 µM and 1.33 µM.
For `COc1ccc2c(c1)CN(Cc1ccc(F)cc1)CO2`, in that order: 0.372 µM and 2.13 µM.
For `COc1ccc(CN2CCNC(=O)C2CC(=O)NCCOC(C)C)c(OC)c1` (centres undefined), in that order: more than 15 µM and more than 15 µM.
As to `CCN1CCN(c2cc(C)c3cc(NC(=S)NCCCN4CCN(c5cccc(Cl)c5)CC4)ccc3n2)CC1`, the EC50 in the assay on Plasmodium falciparum [1] stood at 4.24 µM; with Plasmodium falciparum [2] it was 2.24 µM.
For `COCc1cc(CN2CCN(c3ccccc3OC)CC2)c(O)c2ncccc12`, in that order: 9.06 µM and 4.19 µM.
For `CCCCC(O)(c1ccc(CC)cc1)C(CN1CCOCC1)c1ccccc1` (centres undefined), in that order: 3.44 µM and 3.9 µM.
For `C#CCSc1c(CCCC)cnc2c1c(=O)n(C)c(=O)n2C`, in that order: more than 15 µM and more than 15 µM.
For the compound `CCS(=O)(=O)Nc1ccc(C2=NN(C(=O)c3ccco3)C(c3ccc(F)cc3)C2)cc1` (centres undefined), the concentration for a half-maximal effect (EC50) in the assay with Plasmodium falciparum [1] was 6.12 µM; with Plasmodium falciparum [2] it was more than 15 µM.
For `COc1ccc(NC(=O)C2c3ccccc3C(=O)N(C)C2c2cccs2)cc1Cl` (centres undefined), in that order: 1.35 µM and 1.07 µM.
For `Cc1ccc(CN2CCN(C3CCCCC3)C(CCO)C2)cc1C` (centres undefined), in that order: more than 15 µM and more than 15 µM.
For `Cc1ccccc1NC(=O)C1c2ccccc2C(=O)N2CCc3ccccc3C12` (centres undefined), in that order: more than 15 µM and 4.15 µM.
Consider `COc1ccc(Br)cc1C(Nc1ccccn1)c1cc(Cl)c2cccnc2c1O` (centres undefined), for which the concentration giving a half-maximal response (EC50) in the assay with Plasmodium falciparum [1] is 2.95 µM; in the assay on Plasmodium falciparum [2], more than 15 µM.
For `O=C(Nc1nc(-c2ccccn2)cs1)c1ccccc1Br`, the results for the 50% effective concentration (EC50) in the assay with Plasmodium falciparum [1] and with Plasmodium falciparum [2] were 2.05 µM and 4.53 µM, respectively.
For `CC(=O)NC(c1ccc(Cl)cc1)c1ccc2cccnc2c1O` (centres undefined), in that order: 2.15 µM and 1.93 µM.
For `CCOc1cc(Br)c(C2C(C#N)=C(N)Oc3cc(O)ccc32)cc1OCC` (centres undefined), in that order: 1.52 µM and 3.8 µM.
For `CC1CCN(C(=O)c2cc(COc3ccc(F)cc3F)on2)CC1`, in that order: more than 15 µM and more than 15 µM.
Turning to `Cc1cccc(NC(=O)Nc2ccc(S(=O)(=O)C(F)(F)F)cc2)c1C`, the EC50 with Plasmodium falciparum [1] is 1.22 µM; with Plasmodium falciparum [2], 1.32 µM.
In the case of `O=C(Nc1nnc(-c2ccc3c(c2)CCCC3)o1)c1ccc(F)cc1`, the EC50 in the assay with Plasmodium falciparum [1] and in the assay on Plasmodium falciparum [2] was more than 15 µM each time.
For `Oc1c(Cl)cc(Cl)cc1CN1CCN(c2ccccc2F)CC1`, the concentration for a half-maximal effect (EC50) with Plasmodium falciparum [1] is 0.861 µM; in the assay on Plasmodium falciparum [2], 1.85 µM.
For `CCCN1CCN(CCCNC(=O)c2ccc3c(c2)sc2nc(-c4ccc(C)cc4)cn23)CC1`, in that order: 4.65 µM and 2.02 µM.
For `COc1ccccc1C(=O)Nc1nnc(Cc2nc3ccccc3[nH]2)s1`, in that order: more than 15 µM and more than 15 µM.
For `O=[N+]([O-])c1ccc(C2N(Cc3ccccc3)CCN2Cc2ccccc2)cc1`, in that order: more than 15 µM and more than 15 µM.
Turning to `CCCCNC(=O)CSCc1cnn(-c2ccccc2)c1-n1cccc1`, the EC50 came to 4.06 µM in the assay on Plasmodium falciparum [1] and 0.506 µM in the assay with Plasmodium falciparum [2].
For `COc1ccc(CC(=O)N2CC(=O)Nc3ccc(Cl)cc3C2c2ccc(F)cc2)cc1` (centres undefined), in that order: more than 15 µM and more than 15 µM.
As to `CCc1cc(-c2[nH]nc(C)c2Oc2ccccc2)c(O)cc1OC(C)C`, the figures for the 50% effective concentration (EC50) with Plasmodium falciparum [1] and with Plasmodium falciparum [2] were 1.46 µM and 3.66 µM, respectively.
For `CCCCN1COc2ccc3c(-c4ccccc4)cc(=O)oc3c2C1`, in that order: 0.598 µM and 1.92 µM.
For `COc1cc(-c2nc(-c3ccccc3)c(-c3ccccc3)[nH]2)cc(OC)c1OC`, in that order: more than 15 µM and more than 15 µM.
For `CC1(C)N=C(N)N=C(N)N1c1ccc(F)cc1`, in that order: 2.31 µM and 0.095 µM.
On to `CCCC(=O)C1=C(c2cccc(OC)c2)N(C(=O)CCC)n2cnnc2S1`, for which the half-maximal effective concentration (EC50) in the assay with Plasmodium falciparum [1] and in the assay with Plasmodium falciparum [2] was more than 15 µM in each case.
Take `O=C1CC(c2ccc([N+](=O)[O-])cc2)C2=C(CC(c3cccs3)CC2=O)N1` (centres undefined): the figures for the EC50 in the assay on Plasmodium falciparum [1] and in the assay on Plasmodium falciparum [2] were 2.74 µM and 4.89 µM, respectively.
For `Cc1ccccc1Nc1nc(NCc2ccco2)c2ccccc2n1`, in that order: more than 15 µM and 3.55 µM.
For `Cc1n(CC(O)COc2cccc(Cl)c2)c2ccccc2[n+]1C` (centres undefined), in that order: more than 15 µM and more than 15 µM.
Regarding `CCc1ccccc1NC(=O)c1csc2c1CCC(C)C2` (centres undefined), the EC50 in the assay with Plasmodium falciparum [1] and with Plasmodium falciparum [2] was more than 15 µM each time.
For the compound `O=C(c1cccc(C(F)(F)F)c1)N1CCN(c2ccc(N3CCCCCC3)nn2)CC1`, the EC50 with Plasmodium falciparum [1] and in the assay with Plasmodium falciparum [2] was more than 15 µM in each case.
As for `CCOC(=O)c1ccc(NC(=O)Cc2csc(NC(=O)Nc3ccccc3)n2)cc1`, the 50% effective concentration (EC50) with Plasmodium falciparum [1] and in the assay with Plasmodium falciparum [2] was more than 15 µM each time.
Turning to `CCN(CC)CC(O)COc1ccccc1C(=O)CCc1ccccc1` (centres undefined), the EC50 in the assay with Plasmodium falciparum [1] came to 1.08 µM; with Plasmodium falciparum [2], 2.17 µM.
